Data set [1] relates to tyrosinase. The experiment in a line: Tyrosinase expression (RT-PCR and Western blotting). Type of data set: cell-based, mouse. Particulars: for effect on the suppressed tyrosinase expression induced by β-mangostin: autophagy inhibitor with β-mangostin and α-MSH. As to the method:
(§1) Total RNA was extracted from the cells by using RiboEX reagent (GeneAll Biotechnology Co. Ltd, Seoul, South Korea). cDNA was synthesized by using 2 μg of RNA based on reverse transcription (Thermo Scientific, Waltham, MA, USA). PCR was carried out by using Solg™ e-Taq DNA polymerase kit (SolGent Co. Ltd, Daejeon, South Korea), and each primer described in the following Table 1 was used for PCR.
Total proteins were extracted by using RIPA dissolving buffer (50 mM Tris-HCl (pH 8.0), 150 mM NaCl, 1% NP-40, 0.5% sodium dioxycholate and 0.1% SDS). […] The membrane was then incubated with 5% skim milk and primary antibody for 1 hour in TBS (tris-buffer saline) containing 0.1% Tween 20. The antibodies against tyrosinase and TRP-1 were purchased from Santa Cruz Biotechnology, USA. LC3B, p62 and ATG5 were purchased from CST (Cell Signaling Technology, USA). The antibody against PMEL was purchased from Abcam (UK). Signal detection was made based on enhanced chemiluminescence (Bio-Rad).
A general note: Immunoblotting shows a protein as a band on a membrane.

The test system of data set [2] is B16F10 mouse melanoma cells. Description: Melanin content in α-MSH-treated cells. Type of data set: cell-based. Particulars: for influence on melanin content: co-treatment of inhibitor with β-mangostin and α-MSH; for melanin content reduction / change in melanin content: co-treatment with α-MSH, compared to α-MSH only; for melanin content reduction: 5 μM. As to the method: Measurement of melanin content was carried out by slightly modifying the method by Yang et al. (Yang et al., 2006, Acta pharmacologica Sinica 27, 1467-73). Specifically, B16F10 cells were inoculated into a 6-well plate and cultured for 24 hours. […] The cultured cells were collected after being subjected to trypsinization and dissolution in 1 N NaOH containing DMSO for 24 hours at 65° C. By using a microplate reader (Bio-Rad), melanin content was measured at 415 nm.
(§2) As a result, as it is shown in FIG. 3, cell pellets were turned into black color when the treatment is carried out with α-MSH only. […] Namely, it was shown that β-mangostin suppresses the pigmentation induced by α-MSH. […] In particular, when the treatment is carried out with β-mangostin at 5 μM, which is the same concentration as α-mangostin, melanin content was reduced by 40% or so.

In data set [3] the test system is p62 and PMEL (premelanosome protein). The experiment in a line: p62 and PMEL expression (Western blot). The data set is classed as cell-based, mouse. Particulars: for effect on the suppressed expression of p62 and PMEL induced by β-mangostin: autophagy inhibitor with β-mangostin and α-MSH. How it is done: (§3) Total proteins were extracted by using RIPA dissolving buffer (50 mM Tris-HCl (pH 8.0), 150 mM NaCl, 1% NP-40, 0.5% sodium dioxycholate and 0.1% SDS). The proteins were separated on a 10 to 15% SDS-PAGE, and transferred to a PVDF membrane (Millipore, Billerica, MA, USA). The membrane was then incubated with 5% skim milk and primary antibody for 1 hour in TBS (tris-buffer saline) containing 0.1% Tween 20. The antibodies against tyrosinase and TRP-1 were purchased from Santa Cruz Biotechnology, USA. LC3B, p62 and ATG5 were purchased from CST (Cell Signaling Technology, USA). The antibody against PMEL was purchased from Abcam (UK). Signal detection was made based on enhanced chemiluminescence (Bio-Rad).
Autophagy occurs through a fusion process between an autophagosome and a lysosome. In order to confirm whether or not the depigmentation effect induced by β-mangostin occurs through lysosome-dependent protein degradation during the autophagy process, B16F10 cells were treated with bafilomycin A1 (liquid vacuole type, H^+-ATPase inhibitor) which inhibits β-mangostin, α-MSH, and lysosome activity. As a result, as it is shown in FIG. 7, bafilomycin A1 inhibits, at the aforementioned conditions, the suppressed tyrosinase expression that has been induced by β-mangostin.

The test system of data set [4] is B16F10 mouse melanoma cells. The experiment in a line: Cell viability (MTT analysis). The data set is classed as cell-based. The conditions noted are these: 24 hours, at 20 μM and 40 μM. As to the method:
B16F10 cells were cultured for 24 hours in a 96-well plate. […] Subsequently, a MTT solution (5 μg/mL) was added to the cells, which were then cultured for 3 hours. After removing the medium and treating the cells with DMSO, the cells were cultured for 20 minutes. By using a microplate reader (Bio-Rad), absorbance at 595 nm was measured.
Then, based on MTT […]-(4,5-dimethylthiazol-2-yl)-2,5-diphenyltetrazolium bromide) analysis, cell viability was determined.

The target in data set [5] is T1, tyrosinase (Mus musculus, UniProt P11344).
T1 construct: The cultured cells were collected and dissolved with 1% Triton X-100 solution for 1 hour on ice; endogenous in cells; host or cells: B16F10 mouse melanoma cells
T1 sequence (P11344 19-533): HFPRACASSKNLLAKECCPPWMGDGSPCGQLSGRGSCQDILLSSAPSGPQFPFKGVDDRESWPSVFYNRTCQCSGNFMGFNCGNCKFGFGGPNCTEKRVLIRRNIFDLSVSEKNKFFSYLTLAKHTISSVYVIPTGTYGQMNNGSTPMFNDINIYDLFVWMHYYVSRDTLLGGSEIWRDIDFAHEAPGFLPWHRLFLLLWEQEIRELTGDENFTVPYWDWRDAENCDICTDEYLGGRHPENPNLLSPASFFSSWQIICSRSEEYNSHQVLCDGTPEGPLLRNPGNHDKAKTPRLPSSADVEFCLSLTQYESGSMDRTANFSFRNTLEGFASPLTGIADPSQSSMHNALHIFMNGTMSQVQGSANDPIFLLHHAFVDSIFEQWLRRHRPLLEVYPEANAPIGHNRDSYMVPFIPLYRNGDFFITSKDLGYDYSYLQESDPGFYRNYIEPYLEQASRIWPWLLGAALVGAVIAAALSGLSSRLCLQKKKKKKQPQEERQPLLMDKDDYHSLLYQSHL
Description: Tyrosinase activity (L-DOPA oxidation) in cell lysates. The data set is classed as cell-based. As to the method: Tyrosinase activity was measured by slightly modifying the method by Ohgushi et al. (Ohgushi et al., 2009, Biological & Pharmaceutical Bulletin 32, 308-10). Specifically, B16F10 cells were inoculated into a 6-well plate and cultured for 24 hours. Thereafter, the cells were treated with β-mangostin and α-MSH, each at 1 μM, followed by culture for 48 hours. The cultured cells were collected and dissolved with 1% Triton X-100 solution for 1 hour on ice. The proteins were cultured with 100 μl (2 mg/ml) L-DOPA in a 5% CO2 humidifying incubator at 37° C. condition. By using a microplate reader (Bio-Rad), absorbance at 490 nm was measured.

Data set [6] concerns B16F10 mouse melanoma cells. The experiment in a line: Removal of melanin previously produced by α-MSH. Particulars: treatment after 2 days of α-MSH. The data set is classed as cell-based. How it is done: In order to determine the activity of β-mangostin for removing melanin which has been previously produced by α-MSH as a melanin cell stimulating hormone, B16F10 cells were treated for 2 days with α-MSH to have synthesis of melanin. Thereafter, the cells were treated with β-mangostin of the present invention and 3-MA, which is an autophagy inhibitor.

Data set [7] relates to B16F10 mouse melanoma cells. Description: Suppression of α-MSH-induced pigmentation (cell pellet color). Type of data set: cell-based. Particulars: co-treatment with α-MSH, 72 hours. How it is done: as §2, with “In order to see whether or not β-mangostin can suppress the pigmentation induced by α-MSH (melanocyte-stimulating hormone), B16F10 cells were treated with α-MSH and β-mangostin followed by incubation for 72 hours. As” for “As”

In data set [8] the test system is mRFP-EGFP-LC3B in B16F10 cells. Description: Melanosome autophagy in cells expressing mRFP-EGFP-LC3B (confocal microscopy). The data set is classed as cell-based, mouse. Particulars: β-mangostin (10 μM) and α-MSH (1 μM). As to the method:
B16F10 cells were infected with mRFP-EGFP-LC3B (Kimura et al., 2007, Autophagy 3, 452-60) by using Lipofectamine 3000 (Invitrogen, Carlsbad, CA, USA). The cells were treated with β-mangostin (10 μM) and α-MSH (1 μM), and analysis was made by using confocal microscopy (FV1000, Olympus, Tokyo, Japan).
In order to confirm whether or not β-mangostin can induce the autophagy of a melanosome, B16F10 cells were infected with a construct expressing mRFP-EGFP-LC3B, and then treated with β-mangostin and α-MSH. […] On the other hand, the number of red spots increased in the group treated with both α-MSH and β-mangostin while total number of spots has decreased. If an autophagosome fuses with a lysosome only after wrapping the melanosome, the intra-autophagosomal pH should decrease, and EGFP should be abolished under acidic pH conditions. Accordingly, it was found from the above results that, due to the autophagy enhanced by β-mangostin, degradation of a melanosome has occurred.

The subject of data set [9] is TRP-1 (tyrosinase-related protein-1). Description: TRP-1 expression (RT-PCR and Western blotting). Particulars: B16F10 cells. The data set is classed as cell-based, mouse. How it is done:
as §1, §3
In order to confirm the whitening effect of β-mangostin, RT-PCR and Western blotting analysis were carried out for tyrosinase and TRP-1.

The mark [10] stands for this setting: siATG5, β-mangostin (10 μM) and α-MSH (1 μM), 48 hours.
The mark [11] stands for this setting: treatment after 2 days of α-MSH (melanin previously produced).

Structures are written as SMILES. Where a SMILES comes first, the peptide text is derived from it. The star is where a group is joined. Cbz = O=C(OCc1ccccc1)*

With `CO/C1=C\C(C)=C\[C@@H](C)[C@@H](O)[C@@H](C)C/C(C)=C/C=C/[C@H](OC)[C@@H]([C@@H](C)[C@@H](O)[C@H](C)[C@@]2(O)C[C@@H](O)[C@H](C)[C@@H](C(C)C)O2)OC1=O` [bafilomycin A1], in the data set with tyrosinase [1], the “effect on the suppressed tyrosinase expression induced by β-mangostin” value was “inhibits”.
For the molecule `Cn1cnc(N)c2ncnc1-2` [3-methyladenine], the “influence on melanin content” value in data set [2] is given as “starts to increase again”. In addition, in the data set on tyrosinase [1], the “effect on the suppressed tyrosinase expression induced by β-mangostin” value is “inhibited”. Besides, the “effect on the suppressed expression of p62 and PMEL induced by β-mangostin” value in data set [3] is on record as “inhibit the suppressed expression”.
Turning to `COc1c(O)cc2oc3cc(O)c(CC=C(C)C)c(O)c3c(=O)c2c1CC=C(C)C` [α-mangostin], the melanin content reduction result in data set [2] is given as “about 20%”. The “cytotoxicity (cell viability, MTT)” value in data set [4] is recorded as “potent cytotoxicity”.
Consider `CCN(CC)CCCC(C)Nc1ccnc2cc(Cl)ccc12` (centres unmarked) [chloroquine, reference compound], for which, in the data set on tyrosinase [1], the “effect on the suppressed tyrosinase expression induced by β-mangostin” value is given as “inhibited”. In addition, in data set [3], the “effect on the suppressed expression of p62 and PMEL induced by β-mangostin” value is given as “inhibit the suppressed expression”.
Take `CC(C)C[C@@H](C=O)NC(=O)[C@H](CC(C)C)NC(=O)[C@H](CC(C)C)NC(=O)OCc1ccccc1` [MG132] (Cbz-Leu-Leu-Leu-aldehyde): at tyrosinase [5] (co-treatment of inhibitor with β-mangostin and α-MSH), the “influence on L-DOPA oxidation” value is “no influence”. Besides, in data set [2], the “influence on melanin content” value was “no influence”. The tyrosinase expression amount entry in the data set on tyrosinase [1] (co-treatment of inhibitor with β-mangostin and α-MSH (proteasome dependence)) is reported as “did not increase”.
On to `COc1cc2oc3cc(O)c(OC)c(CC=C(C)C)c3c(=O)c2c(O)c1CC=C(C)C` [β-mangostin], for which the “content of previously formed melanin” value in data set [6] was “lower effectively”. The cell pellet color result in data set [7] was “changed from black color to white color”. For the same molecule, the “oxidation level of L-DOPA” value at tyrosinase [5] (co-treatment with α-MSH, concentration dependent) is given as “effectively reduced”. In addition, in data set [8], the “number of red spots (mRFP-EGFP-LC3B)” value is listed as “increased” and the “total number of spots (mRFP-EGFP-LC3B)” value was “decreased”. In data set [2], the “change in melanin content” value is recorded as “effectively reduced” and the melanin content reduction is listed as roughly 40%. The “melanin content level reduced by β-mangostin, after knockdown of ATG5” value in data set [2] (setting [10]) was “increased again”. In the data set with tyrosinase [1] (RT-PCR and Western blotting, B16F10 cells), the “expression amount of tyrosinase induced by α-MSH” value is reported as “effectively lowered”. In addition, the “expression of tyrosinase reduced by β-mangostin, after knockdown of ATG5” value with tyrosinase [1] (setting [10]) is given as “increased again”. Also, in the data set with tyrosinase [1] (setting [11]), the “expression amount of tyrosinase” value is given as “lower a significant expression amount”. The “expression amount of TRP-1 induced by α-MSH” value in data set [9] was “effectively lowered”. Moreover, the “expression of p62 and PMEL reduced by β-mangostin, after knockdown of ATG5” value in data set [3] (setting [10]) was “increased again”. In addition, the “expression amount of PMEL” value in [3] (setting [11]) was “lower a significant expression amount”.
Turning to `CC(C)=CCc1c(O)cc2oc3cc(O)c(O)c(CC=C(C)C)c3c(=O)c2c1O` [γ-mangostin], the “change in melanin content” value in data set [2] is “further increased the melanin content”.
